According to publication PMC6792352, “Limited Chemical Structural Diversity Found to Modulate Thyroid Hormone Receptor in the Tox21 Chemical Library” (Environmental Health Perspectives, 2019):
Counter-ions that a name gives are not always drawn.

Assay: in vitro
Settings: rat, gh3-tre-luc cells

Work on `CCCCCCCCCCCCCC[P+](CCCCCC)(CCCCCC)CCCCCC` [Trihexyltetradecylphosphonium chloride] yielded a CC50 at 24 h (AC50 (uM) modified / 1000) of 5.15 µM.

For `OC(CCN1CCCCC1)(c1ccccc1)C1CCCCC1` (stereo not shown) [Trihexyphenidyl hydrochloride], the CC50 at 24 h (AC50 (uM) modified / 1000) was > 50 µM.

In the case of `CC(C)C[P+](C)(CC(C)C)CC(C)C` [Triisobutylmethylphosphonium tosylate], the CC50 at 24 h (AC50 (uM) modified / 1000) is reported as > 90 µM.

With `CC(C)CCCCCCCOC(=O)c1ccc(C(=O)OCCCCCCCC(C)C)c(C(=O)OCCCCCCCC(C)C)c1` [Triisodecyl trimellitate] the CC50 at 24 h (AC50 (uM) modified / 1000) was > 80 µM.

In the case of `CC(C)CCCCCCOC(=O)c1ccc(C(=O)OCCCCCCC(C)C)c(C(=O)OCCCCCCC(C)C)c1` [Triisononyl trimellitate], the CC50 at 24 h (AC50 (uM) modified / 1000) is reported as > 90 µM.

With `CC(O)CN(CC(C)O)CC(C)O` (stereo not shown) [Triisopropanolamine] the CC50 at 24 h (AC50 (uM) modified / 1000, Tox21_110001=Tox21_201952, viability, 1 nM T3 present, 24 h) was > 90 µM.

With `CC(C)OB(OC(C)C)OC(C)C` [Triisopropyl orthoborate] the CC50 at 24 h (AC50 (uM) modified / 1000) was > 90 µM.

For `C[C@]12CC[C@H]3[C@@H](CC[C@@]45O[C@@H]4C(O)=C(C#N)C[C@]35C)[C@@H]1CC[C@@H]2O` [Trilostane], the CC50 at 24 h (AC50 (uM) modified / 1000) was > 90 µM.

In the case of `CCC(COC(=O)c1cc(OC)c(OC)c(OC)c1)(c1ccccc1)N(C)C` (stereo not shown) [Trimebutine maleate], the CC50 at 24 h (AC50 (uM) modified / 1000) is reported as > 50 µM.

In the case of `CCN(CC)CC(=O)Nc1c(C)cc(C)cc1C` [Trimecaine monohydrochloride], the CC50 at 24 h (AC50 (uM) modified / 1000) is reported as > 50 µM.

In the case of `O=C(O)c1ccc2c(c1)C(=O)OC2=O` [Trimellitic anhydride], the CC50 at 24 h (AC50 (uM) modified / 1000) is reported as > 90 µM.

With `CC(CN(C)C)CN1c2ccccc2Sc2ccccc21` (stereo not shown) [Trimeprazine tartrate] the CC50 at 24 h (AC50 (uM) modified / 1000) was 4.36 µM.

For `COc1ccc(CN2CCNCC2)c(OC)c1OC` [Trimetazidine dihydrochloride], the CC50 at 24 h (AC50 (uM) modified / 1000) was > 20 µM.

For `CC12CCC(C[N+](C)(CCC[N+](C)(C)C)C1)C2(C)C` (stereo not shown) [Trimethidinium methyl sulfate], the CC50 at 24 h (AC50 (uM) modified / 1000) was > 50 µM.

In the case of `COc1cc(C(=O)NCc2ccc(OCCN(C)C)cc2)cc(OC)c1OC` [Trimethobenzamide hydrochloride], the CC50 at 24 h (AC50 (uM) modified / 1000) is reported as > 20 µM.

With `COc1cc(Cc2cnc(N)nc2N)cc(OC)c1OC` [Trimethoprim] the CC50 at 24 h (AC50 (uM) modified / 1000) was > 90 µM.

With `COc1cc(C[C@@H]2NCCc3cc(O)c(O)cc32)cc(OC)c1OC` [Trimethoquinol] the CC50 at 24 h (AC50 (uM) modified / 1000) was > 50 µM.

In the case of `COC(OC)OC` [Trimethoxymethane], the CC50 at 24 h (AC50 (uM) modified / 1000) is reported as > 90 µM.

In the case of `CO[Si](C)(OC)OC` [Trimethoxymethylsilane], the CC50 at 24 h (AC50 (uM) modified / 1000) is reported as > 90 µM.

In the case of `CO[Si](OC)(OC)c1ccccc1` [Trimethoxyphenylsilane], the CC50 at 24 h (AC50 (uM) modified / 1000) is reported as > 90 µM.

For `CCC[Si](OC)(OC)OC` [Trimethoxypropylsilane], the CC50 at 24 h (AC50 (uM) modified / 1000) was > 90 µM.

In the case of `COC(=O)c1ccc(C(=O)OC)c(C(=O)OC)c1` [Trimethyl benzene-1,2,4-tricarboxylate], the CC50 at 24 h (AC50 (uM) modified / 1000) is reported as > 90 µM.

In the case of `CN(C)C` [Trimethylamine hydrochloride], the CC50 at 24 h (AC50 (uM) modified / 1000) is reported as > 90 µM.

With `CC(CCCCN)C(C)(C)N` (stereo not shown) [Trimethylhexane-1,6-diamine] the CC50 at 24 h (AC50 (uM) modified / 1000) was > 200 µM.

With `C=CC(=O)OCCOCC(CC)(COCCOC(=O)C=C)COCCOC(=O)C=C` [Trimethylolpropane ethoxylate triacrylate] the CC50 at 24 h (AC50 (uM) modified / 1000) was 23.1 µM.

For `C[Si](C)(C)O[Si](O)(O)O` [Trimethylsilyl silicate], the CC50 at 24 h (AC50 (uM) modified / 1000) was > 90 µM.

With `COc1cc(C(=O)N2CCOCC2)cc(OC)c1OC` [Trimetozine] the CC50 at 24 h (AC50 (uM) modified / 1000) was > 50 µM.

Work on `COc1cc(NCc2ccc3nc(N)nc(N)c3c2C)cc(OC)c1OC` [Trimetrexate trihydrochloride] yielded a CC50 at 24 h (AC50 (uM) modified / 1000) of 8.81 µM.

Compound `CC(CN(C)C)CN1c2ccccc2CCc2ccccc21` (stereo not shown) [Trimipramine maleate] has a CC50 at 24 h (AC50 (uM) modified / 1000) of 4.77 µM.

With `CCOC(=O)C1CC(=O)C(=C(O)C2CC2)C(=O)C1` (stereo not shown) [Trinexapac-ethyl] the CC50 at 24 h (AC50 (uM) modified / 1000) was > 90 µM.

In the case of `CCCCCCCCOC(=O)c1ccc(C(=O)OCCCCCCCC)c(C(=O)OCCCCCCCC)c1` [Trioctyl trimellitate], the CC50 at 24 h (AC50 (uM) modified / 1000) is reported as > 90 µM.

For `Cc1cc2cc3c(C)cc(=O)oc3c(C)c2o1` [Trioxsalen], the CC50 at 24 h (AC50 (uM) modified / 1000) was > 20 µM.

For `CCCCCCCCCCCCCCCC(=O)OCC(COC(=O)CCCCCCCCCCCCCCC)OC(=O)CCCCCCCCCCCCCCC` [Tripalmitin], the CC50 at 24 h (AC50 (uM) modified / 1000) was > 50 µM.

With `CCN(CC)CCOc1ccc(C(O)(Cc2ccc(Cl)cc2)c2ccc(C)cc2)cc1` (stereo not shown) [Triparanol] the CC50 at 24 h (AC50 (uM) modified / 1000) was 8.76 µM.

With `CN(C)CCN(Cc1ccccc1)c1ccccn1` [Tripelennamine citrate] the CC50 at 24 h (AC50 (uM) modified / 1000) was > 50 µM.

For `O=P(Oc1ccccc1)(Oc1ccccc1)Oc1ccccc1` [Triphenyl phosphate], the CC50 at 24 h (AC50 (uM) modified / 1000, Tox21_110001=Tox21_201511, viability, 1 nM T3 present, 24 h) was > 90 µM.

For `c1ccc(B(c2ccccc2)c2ccccc2)cc1` [Triphenylborane], the CC50 at 24 h (AC50 (uM) modified / 1000) was > 90 µM.

In the case of `C(=C(c1ccccc1)c1ccccc1)c1ccccc1` [Triphenylethylene], the CC50 at 24 h (AC50 (uM) modified / 1000) is reported as > 90 µM.

For `O=P(c1ccccc1)(c1ccccc1)c1ccccc1` [Triphenylphosphine oxide], the CC50 at 24 h (AC50 (uM) modified / 1000) was > 90 µM.

In the case of `c1ccc(P(c2ccccc2)c2ccccc2)cc1` [Triphenylphosphine], the CC50 at 24 h (AC50 (uM) modified / 1000) is reported as > 90 µM.

With `Cc1ccc(/C(=C\CN2CCCC2)c2ccccn2)cc1` [Triprolidine hydrochloride monohydrate] the CC50 at 24 h (AC50 (uM) modified / 1000) was 58.4 µM.

With `CCCOC(OCCC)OCCC` [Tripropyl orthoformate] the CC50 at 24 h (AC50 (uM) modified / 1000) was > 90 µM.

In the case of `CCCCOC(CC)OC(C)COC(O)CC` (stereo not shown) [Tripropylene glycol butyl ether], the CC50 at 24 h (AC50 (uM) modified / 1000) is reported as > 90 µM.

`C=CC(=O)OCC(C)OCC(C)OCC(C)OC(=O)C=C` (stereo not shown) [Tripropylene glycol diacrylate] showed a CC50 at 24 h (AC50 (uM) modified / 1000) of 36.2 µM.

For `CC(O)COC(C)COC(C)CO` (stereo not shown) [Tripropylene glycol], the CC50 at 24 h (AC50 (uM) modified / 1000) was > 90 µM.

`O=P(OCC(Br)CBr)(OCC(Br)CBr)OCC(Br)CBr` (stereo not shown) [Tris(2,3-dibromopropyl) phosphate] showed a CC50 at 24 h (AC50 (uM) modified / 1000, Tox21_110001=Tox21_201798, viability, 1 nM T3 present, 24 h) of 30.4 µM and a CC50 at 24 h (AC50 (uM) modified / 1000, Tox21_110001=Tox21_302967, viability, 1 nM T3 present, 24 h) of 54.5 µM.

With `CCCCOCCOP(=O)(OCCOCCCC)OCCOCCCC` [Tris(2-butoxyethyl) phosphate] the CC50 at 24 h (AC50 (uM) modified / 1000, Tox21_110001=Tox21_201593, viability, 1 nM T3 present, 24 h) was > 90 µM and the CC50 at 24 h (AC50 (uM) modified / 1000, Tox21_110001=Tox21_302891, viability, 1 nM T3 present, 24 h) was 58.5 µM.

For `O=P(OCCCl)(OCCCl)OCCCl` [Tris(2-chloroethyl) phosphate], the CC50 at 24 h (AC50 (uM) modified / 1000, Tox21_110001=Tox21_201254, viability, 1 nM T3 present, 24 h) was > 90 µM.

In the case of `CC(CCl)OP(=O)(OC(C)CCl)OC(C)CCl` (stereo not shown) [Tris(2-chloroisopropyl)phosphate], the CC50 at 24 h (AC50 (uM) modified / 1000) is reported as > 90 µM.

In the case of `CC(Cl)COP(=O)(OCC(C)Cl)OCC(C)Cl` (stereo not shown) [Tris(2-chloropropyl) phosphate], the CC50 at 24 h (AC50 (uM) modified / 1000, Tox21_110001=Tox21_302421, viability, 1 nM T3 present, 24 h) is reported as > 90 µM.

With `CCCCC(CC)COP(=O)(OCC(CC)CCCC)OCC(CC)CCCC` (stereo not shown) [Tris(2-ethylhexyl) phosphate] the CC50 at 24 h (AC50 (uM) modified / 1000) was > 90 µM.

In the case of `CCCCC(CC)COC(=O)c1ccc(C(=O)OCC(CC)CCCC)c(C(=O)OCC(CC)CCCC)c1` (stereo not shown) [Tris(2-ethylhexyl) trimellitate], the CC50 at 24 h (AC50 (uM) modified / 1000) is reported as > 90 µM.

With `O=c1n(CCO)c(=O)n(CCO)c(=O)n1CCO` [Tris(2-hydroxyethyl) isocyanurate] the CC50 at 24 h (AC50 (uM) modified / 1000) was > 90 µM.

For `Sc1nc(S)nc(S)n1` [Trisodium 2,4,6-trithioxo-1,3,5-triazinane-1,3,5-triide], the CC50 at 24 h (AC50 (uM) modified / 1000) was > 50 µM.

In the case of `CC1(C)SC(C)(C)SC(C)(C)S1` [Trithioacetone], the CC50 at 24 h (AC50 (uM) modified / 1000) is reported as > 90 µM.

For `CC1(C)CC/C(=C\c2ccc(Cl)cc2)C1(O)Cn1cncn1` (stereo not shown) [Triticonazole], the CC50 at 24 h (AC50 (uM) modified / 1000) was > 90 µM.

For `COc1cc(C(=S)N2CCOCC2)cc(OC)c1OC` [Tritiozine], the CC50 at 24 h (AC50 (uM) modified / 1000) was > 50 µM.

For `COc1cc(C(=O)N2CCCCCCC2)cc(OC)c1OC` [Trocimine], the CC50 at 24 h (AC50 (uM) modified / 1000) was > 50 µM.

With `CO[C@H]1C[C@H](O[C@H]2[C@H](C)[C@@H](O[C@@H]3O[C@H](C)C[C@H](N(C)C)[C@H]3OC(C)=O)[C@@H](C)C[C@@]3(CO3)C(=O)[C@H](C)[C@@H](OC(C)=O)[C@@H](C)[C@@H](C)OC(=O)[C@@H]2C)O[C@@H](C)[C@@H]1OC(C)=O` [Troleandomycin] the CC50 at 24 h (AC50 (uM) modified / 1000) was > 20 µM.
